Reference: patent publication US11000033B2, “Ketone or oxime compound, and herbicide” (NISSAN CHEMICAL CORPORATION, priority 2014, dated 2021)

How the values were obtained:
Format in all cases: in vivo
Setaria viridis [1] = assay: Test Example 5: herbicidal effect by foliage application, plastic box (symbol G); settings: 320 g/ha, 3 weeks after application
Outline: (§1)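 Seeds were sown in sterilized diluvial soil, covered with about 1.5 cm of soil and grown 14 days in a greenhouse at 25° C. to 30° C. An emulsifiable formulation diluted in water to a set rate was sprayed over foliage, and injury was scored 3 weeks later.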

Cyperus difformis = assay: Test Example 3: herbicidal effect by foliage application, Wagner pot (symbol E); settings: application herbicide amount 320 g/ha
Outline: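 Alluvial soil was flooded to a depth of 0.1–0.5 cm, seeded with the weeds and rice, and kept in a greenhouse at 25–30 °C. After 14 days of growth, the foliage received a small-sprayer application of emulsion diluted to the intended rate; injury was rated at 3 weeks.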

rice = assay: Test Example 4: effect on crop by soil treatment (symbol b)
Outline: (§2)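 Steps: fill box with sterilized diluvial soil; sow seed spot-like; cover with ~1.5 cm soil; grow in greenhouse (25° C. to 30° C.).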

Lolium multiflorum Lam. [2] = assay: Test Example 5: herbicidal effect by foliage application, plastic box (symbol K); settings: 320 g/ha, 3 weeks after application
Outline: as §1

Apera spica-venti = assay: Test Example 4: herbicidal effect by soil treatment (symbol L)
Outline: (§3)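 Seeds were sown in sterilized diluvial soil, covered with about 1.5 cm of soil, and the soil surface was sprayed with a water-diluted emulsion of the compound at a predetermined rate. Plants grew in a greenhouse at 25° C. to 30° C.; effects were scored visually 3 weeks after application.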

Setaria viridis [3] = assay: Test Example 4: herbicidal effect by soil treatment (symbol G)
Outline: as §3

Amaranthus retroflexus = assay: Test Example 5: herbicidal effect by foliage application, plastic box (symbol N); settings: 320 g/ha, 3 weeks after application
Outline: as §1

Veronica persica [4] = assay: Test Example 5: herbicidal effect by foliage application, plastic box (symbol R); settings: 320 g/ha, 3 weeks after application
Outline: as §1

corn = assay: Test Example 4: effect on crop by soil treatment (symbol c)
Outline: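 Seeds were sown in spots on sterilized diluvial soil in a plastic box and covered with about 1.5 cm of soil. Plants were then grown in a greenhouse at 25° C. to 30° C.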

Avena fatua = assay: Test Example 5: herbicidal effect by foliage application, plastic box (symbol I); settings: 320 g/ha, 3 weeks after application
Outline: as §1

[5] = test system: Echinochloa oryzacola Vasing.; assay: Test Example 1: herbicidal activity, application before weed generation in submerged conditions (symbol A); settings: application herbicide amount 320 g/ha
Outline: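 0–5 visual score, 3 wk post-application. Submerged pots, alluvial soil, water 4 cm; seeds sown mixed, rice at 2.5 leaves transplanted. Emulsion diluted to predetermined dose, applied to water surface at sowing. 25–30 °C greenhouse.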

wheat = assay: Test Example 4: effect on crop by soil treatment (symbol e)
Outline: as §2

soybean [6] = assay: Test Example 5: effect on crop by foliage application, plastic box (symbol d); settings: 320 g/ha, 3 weeks after application
Outline: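 Crop seed is sown alongside grass and broadleaf weed species in spots in sterilized diluvial soil, then covered to a depth of about 1.5 cm. Plants grow in a greenhouse kept at 25° C. to 30° C.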

soybean [7] = assay: Test Example 4: effect on crop by soil treatment (symbol d)
Outline: as §2

Alopecurus myosuroides [8] = assay: Test Example 4: herbicidal effect by soil treatment (symbol J)
Outline: as §3

Lolium multiflorum Lam. [9] = assay: Test Example 4: herbicidal effect by soil treatment (symbol K)
Outline: as §3

Galium spurium = assay: Test Example 4: herbicidal effect by soil treatment (symbol Q)
Text: Herbicidal Effect Test by Soil Treatment
Sterilized diluvial soil was placed in a plastic box having a length of 21 cm, a width of 13 cm, and a depth of 7 cm. Each of the seeds of Digitaria ciliaris, Setaria viridis, Echinochloa crus-galli var. crus-galli, Avena fatua, Alopecurus myosuroides, Lolium multiflorum Lam., Apera spica-venti, Abutilon theophrasti, Amaranthus retroflexus, Chenopodium album, Stellaria media, Galium spurium, Veronica persica, corn, soybean, rice, wheat, beet, and rapeseed was sowed in a spot-like manner and was covered with the soil of a thickness of about 1.5 cm. Subsequently, the emulsion agent of the compound present invention prepared in accordance with Formulation Example 2 was diluted with water so as to be a predetermined herbicide amount and the diluted emulsion agent was uniformly applied to the surface of the soil with a small-size spray. The plastic box was placed in a greenhouse of 25° C. to 30° C. to grow plant. 3 weeks later from the herbicide application, the effect to each plant was investigated in accordance with the criteria of Test Example 1.

Alopecurus myosuroides [10] = assay: Test Example 5: herbicidal effect by foliage application, plastic box (symbol J); settings: 320 g/ha, 3 weeks after application
Outline: as §1

Veronica persica [11] = assay: Test Example 4: herbicidal effect by soil treatment (symbol R); settings: application herbicide amount 320 g/ha
Outline: as §3

[12] = application herbicide amount 320 g/ha

**Q.** `CON=C(C)CC1CC(OC(=O)C(C)(C)C)=C(c2c(C)cc(C)cc2C)C1=O` (stereo not drawn) [1-004, 2-mesityl-4-{2-(methoxyimino)propyl}-3-oxocyclopent-1-en-1-yl pivalate] was tested. Which “G: Setaria viridis, herbicidal effect grade” value (Setaria viridis [1]) did it give?
**A.** 5 (Herbicidal ratio of 90% or more (almost completely withered))

**Q.** What about the “herbicidal effect on E, grade 0-5” value (Cyperus difformis) of the same compound?
**A.** 5 (Herbicidal ratio of 90% or more (almost completely withered))

**Q.** What about the “b (directly sowed rice plant) effect on crop grade” value (rice; [12]) of the same compound?
**A.** 5 (Herbicidal ratio of 90% or more (almost completely withered))

**Q.** And the “K: Lolium multiflorum Lam., herbicidal effect grade” value (Lolium multiflorum Lam. [2])?
**A.** 5 (Herbicidal ratio of 90% or more (almost completely withered))

**Q.** And the “L (Apera spica-venti) herbicidal effect grade” value (Apera spica-venti; [12])?
**A.** 5 (Herbicidal ratio of 90% or more (almost completely withered))

**Q.** What about the “G (Setaria viridis) herbicidal effect grade” value (Setaria viridis [3]; [12]) of the same compound?
**A.** 5 (Herbicidal ratio of 90% or more (almost completely withered))

**Q.** And the “N: Amaranthus retroflexus, herbicidal effect grade” value (Amaranthus retroflexus)?
**A.** 4 (Herbicidal ratio of 70% or higher and lower than 90%)

**Q.** And the “R: Veronica persica, herbicidal effect grade” value (Veronica persica [4])?
**A.** 4 (Herbicidal ratio of 70% or higher and lower than 90%)

**Q.** What about the “c (corn) effect on crop grade” value (corn; [12]) of the same compound?
**A.** 4 (Herbicidal ratio of 70% or higher and lower than 90%)

**Q.** What about the “I: Avena fatua, herbicidal effect grade” value (Avena fatua) of the same compound?
**A.** 5 (Herbicidal ratio of 90% or more (almost completely withered))

**Q.** And the “Herbicidal effect grade, A: Echinochloa oryzacola Vasing.” value [5]?
**A.** 5 (Herbicidal ratio of 90% or more (almost completely withered))

**Q.** What about the “e (wheat) effect on crop grade” value (wheat; [12]) of the same compound?
**A.** 3 (Herbicidal ratio of 40% or higher and lower than 70%)

**Q.** And the “d: soybean, effect on crop grade” value (soybean [6])?
**A.** 4 (Herbicidal ratio of 70% or higher and lower than 90%)

**Q.** And the “d (soybean) effect on crop grade” value (soybean [7]; [12])?
**A.** 3 (Herbicidal ratio of 40% or higher and lower than 70%)

**Q.** And the “J (Alopecurus myosuroides) herbicidal effect grade” value (Alopecurus myosuroides [8]; [12])?
**A.** 5 (Herbicidal ratio of 90% or more (almost completely withered))

**Q.** What about the “K (Lolium multiflorum Lam.) herbicidal effect grade” value (Lolium multiflorum Lam. [9]; [12]) of the same compound?
**A.** 5 (Herbicidal ratio of 90% or more (almost completely withered))

**Q.** What about the “Q (Galium spurium) herbicidal effect grade” value (Galium spurium; [12]) of the same compound?
**A.** 0 (Herbicidal ratio of 5% or lower (almost no effect))

**Q.** And the “J: Alopecurus myosuroides, herbicidal effect grade” value (Alopecurus myosuroides [10])?
**A.** 5 (Herbicidal ratio of 90% or more (almost completely withered))

**Q.** For `CON=C(C)CC1CC(OC(=O)CN(C)C(=O)c2ccccc2)=C(c2c(C)cc(C)cc2C)C1=O` (stereo not drawn) [1-139], which “G: Setaria viridis, herbicidal effect (criteria 0-5)” value (Setaria viridis [1]) is on record?
**A.** 5 (Herbicidal ratio of 90% or more (almost completely withered))

**Q.** What about the “herbicidal effect on E, grade 0-5” value (Cyperus difformis) of the same compound?
**A.** 5 (Herbicidal ratio of 90% or more (almost completely withered))

**Q.** And the “b: directly sowed rice plant, effect grade on crop” value (rice; 320 g/ha)?
**A.** 5 (Herbicidal ratio of 90% or more (almost completely withered))

**Q.** And the “K: Lolium multiflorum Lam., herbicidal effect (criteria 0-5)” value (Lolium multiflorum Lam. [2])?
**A.** 5 (Herbicidal ratio of 90% or more (almost completely withered))

**Q.** What about the “L: Apera spica-venti, herbicidal effect grade” value (Apera spica-venti; 320 g/ha) of the same compound?
**A.** 5 (Herbicidal ratio of 90% or more (almost completely withered))

**Q.** And the “G: Setaria viridis, herbicidal effect grade” value (Setaria viridis [3]; 320 g/ha)?
**A.** 5 (Herbicidal ratio of 90% or more (almost completely withered))

**Q.** And the “N: Amaranthus retroflexus, herbicidal effect (criteria 0-5)” value (Amaranthus retroflexus)?
**A.** 0 (Herbicidal ratio of 5% or lower (almost no effect))

**Q.** And the “R: Veronica persica, herbicidal effect (criteria 0-5)” value (Veronica persica [4])?
**A.** 2 (Herbicidal ratio of 20% or higher and lower than 40%)

**Q.** What about the “c: corn, effect grade on crop” value (corn; 320 g/ha) of the same compound?
**A.** 5 (Herbicidal ratio of 90% or more (almost completely withered))

**Q.** And the “I: Avena fatua, herbicidal effect (criteria 0-5)” value (Avena fatua)?
**A.** 5 (Herbicidal ratio of 90% or more (almost completely withered))

**Q.** What about the “Herbicidal effect grade, A: Echinochloa oryzacola Vasing.” value [5] of the same compound?
**A.** 5 (Herbicidal ratio of 90% or more (almost completely withered))

**Q.** And the “e: wheat, effect grade on crop” value (wheat; 320 g/ha)?
**A.** 3 (Herbicidal ratio of 40% or higher and lower than 70%)

**Q.** And the “d: soybean, effect on crop (criteria 0-5)” value (soybean [6])?
**A.** 1 (Herbicidal ratio of 5% or higher and lower than 20%)

**Q.** And the “d: soybean, effect grade on crop” value (soybean [7]; 320 g/ha)?
**A.** 0 (Herbicidal ratio of 5% or lower (almost no effect))

**Q.** And the “J: Alopecurus myosuroides, herbicidal effect grade” value (Alopecurus myosuroides [8]; 320 g/ha)?
**A.** 5 (Herbicidal ratio of 90% or more (almost completely withered))

**Q.** And the “K: Lolium multiflorum Lam., herbicidal effect grade” value (Lolium multiflorum Lam. [9]; 320 g/ha)?
**A.** 5 (Herbicidal ratio of 90% or more (almost completely withered))

**Q.** What about the “Q: Galium spurium, herbicidal effect grade” value (Galium spurium; 320 g/ha) of the same compound?
**A.** 0 (Herbicidal ratio of 5% or lower (almost no effect))

**Q.** And the “J: Alopecurus myosuroides, herbicidal effect (criteria 0-5)” value (Alopecurus myosuroides [10])?
**A.** 5 (Herbicidal ratio of 90% or more (almost completely withered))

**Q.** How did the “G: Setaria viridis, herbicidal effect grade” value (Setaria viridis [1]) turn out when `CC(CC1CC(OC(=O)COc2ccccc2)=C(c2c(C)cc(-n3cc(Cl)cn3)cc2C)C1=O)=NOCC(F)(F)F` (stereo not drawn) [9-012] was run?
**A.** 5 (Herbicidal ratio of 90% or more (almost completely withered))

**Q.** What about the “E herbicidal effect grade” value (Cyperus difformis; Table 24) of the same compound?
**A.** 5 (Herbicidal ratio of 90% or more (almost completely withered))

**Q.** What about the “Effect on crop grade, b: directly sowed rice plant” value (rice; [12]) of the same compound?
**A.** 5 (Herbicidal ratio of 90% or more (almost completely withered))

**Q.** What about the “K: Lolium multiflorum Lam., herbicidal effect grade” value (Lolium multiflorum Lam. [2]) of the same compound?
**A.** 5 (Herbicidal ratio of 90% or more (almost completely withered))

**Q.** And the “Herbicidal effect grade, L: Apera spica-venti” value (Apera spica-venti; [12])?
**A.** 5 (Herbicidal ratio of 90% or more (almost completely withered))

**Q.** And the “Herbicidal effect grade, G: Setaria viridis” value (Setaria viridis [3]; [12])?
**A.** 5 (Herbicidal ratio of 90% or more (almost completely withered))

**Q.** What about the “N: Amaranthus retroflexus, herbicidal effect grade” value (Amaranthus retroflexus) of the same compound?
**A.** 4 (Herbicidal ratio of 70% or higher and lower than 90%)

**Q.** And the “R: Veronica persica, herbicidal effect grade” value (Veronica persica [4])?
**A.** 3 (Herbicidal ratio of 40% or higher and lower than 70%)

**Q.** What about the “Effect on crop grade, c: corn” value (corn; [12]) of the same compound?
**A.** 2 (Herbicidal ratio of 20% or higher and lower than 40%)

**Q.** What about the “I: Avena fatua, herbicidal effect grade” value (Avena fatua) of the same compound?
**A.** 5 (Herbicidal ratio of 90% or more (almost completely withered))

**Q.** What about the “A (Echinochloa oryzacola Vasing.) herbicidal effect grade” value [5] of the same compound?
**A.** 5 (Herbicidal ratio of 90% or more (almost completely withered))

**Q.** And the “Effect on crop grade, e: wheat” value (wheat; [12])?
**A.** 0 (Herbicidal ratio of 5% or lower (almost no effect))

**Q.** And the “d: soybean, effect on crop grade” value (soybean [6])?
**A.** 1 (Herbicidal ratio of 5% or higher and lower than 20%)

**Q.** What about the “Effect on crop grade, d: soybean” value (soybean [7]; [12]) of the same compound?
**A.** 0 (Herbicidal ratio of 5% or lower (almost no effect))

**Q.** And the “Herbicidal effect grade, J: Alopecurus myosuroides” value (Alopecurus myosuroides [8]; [12])?
**A.** 5 (Herbicidal ratio of 90% or more (almost completely withered))

**Q.** And the “Herbicidal effect grade, R: Veronica persica” value (Veronica persica [11])?
**A.** 2 (Herbicidal ratio of 20% or higher and lower than 40%)

**Q.** What about the “Herbicidal effect grade, K: Lolium multiflorum Lam.” value (Lolium multiflorum Lam. [9]; [12]) of the same compound?
**A.** 5 (Herbicidal ratio of 90% or more (almost completely withered))

**Q.** And the “J: Alopecurus myosuroides, herbicidal effect grade” value (Alopecurus myosuroides [10])?
**A.** 5 (Herbicidal ratio of 90% or more (almost completely withered))
